Assay results taken from patent US9382295B2, “Cyclic depsipeptide compounds and their uses” (Cypralis Limited, priority 2012, dated 2016).
Like-named read-outs stand apart in the source and are kept apart here.

Tests used:
cyclophilin D (Cyp D) = cyclophilin D (Cyp D) (Homo sapiens, UniProt P30405); experiment: Protease-free PPIase assay, cyclophilin D; format: biochemical
Method in brief: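 Cis-trans isomerization of a succinimide-peptide substrate (60 µM final) by 2 nM enzyme was followed at 330 nm in 35 mM HEPES pH 7.8 with 50 µM DTT, stirred at 10.0 °C, DMSO ≤0.5%. First-order rate constants minus background were fitted against inhibitor concentration to give Ki.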

[1] = Water solubility assay (pH 7.8 buffer); format: physicochemical; settings: pH 7.8
Method in brief: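 DMSO stocks were diluted into 35 mM HEPES pH 7.8 to final 0–100 μM with 1% DMSO, in triplicate. Plates were shaken 18 h at 25 °C, then precipitation was detected as increased absorbance at 650 nm. Values give the concentration (μM) at which the compound remains in solution.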

[2] = Rat pharmacokinetics, iv and po dosing, whole blood and plasma; format: in vivo; settings: for AUC(0-inf) / AUC(0-t) / Cmax / half-life / clearance / Vd / bioavailability / Tmax: mean; for half-life: read-out: half-life (T1/2) (converted); for clearance: read-out: systemic clearance (converted); for Vd: read-out: volume of distribution at the terminal phase; for bioavailability: po 10 mg/kg vs iv 1 mg/kg
Experimental: Rat pharmacokinetic data was obtained for example 2, following iv dosing at 1 mg/kg and po dosing at 10 mg/kg and individual analysis of plasma and whole blood samples at various time points was carried out.

cyclophilin D (Cyp D), sequence (P30405 30-207): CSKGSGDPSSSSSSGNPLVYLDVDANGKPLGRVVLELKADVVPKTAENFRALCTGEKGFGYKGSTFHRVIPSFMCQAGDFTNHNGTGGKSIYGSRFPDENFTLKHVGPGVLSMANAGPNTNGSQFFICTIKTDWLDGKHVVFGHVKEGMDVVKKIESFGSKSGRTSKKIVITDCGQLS

CC(C)CC1NC(=O)[C@H](CC(C)C)N(C)C(=O)CN(C)C(=O)C([C@@H](C)O)NC(=O)C([C@H](O)[C@H](C)CCN2CCOCC2)N(C)C(=O)C(C(C)C)N(C)C(=O)C(CC(C)C)NC(=O)C(CC(C)C)N(C)C(=O)C(C(C)C)OC(=O)C(C)NC(=O)C(CC(C)C)N(C)C1=O (stereo in doubt) [Example 2, cyclo-[(3R,4R,5S)-4-(hydroxy)-3-methyl-5-(methylamino)-1-N-morpholino-hexanoic acid-Thr-Sar-MeLeu-Leu-MeLeu-Ala-D-Hiv-MeLeu-Leu-MeVal]]
Ki (cyclophilin D (Cyp D)): 6.5 nM
solubility at 18 h [1]: > 100 µM
blood plasma ratio ([2]; intravenous, 1 mg/kg, from volumes of distribution in plasma and whole blood, read-out: difference in blood to plasma ratio): ~3
systemic clearance relative to hepatic blood flow in rats (3.31 L/hr/kg) ([2]; plasma, iv 1 mg/kg): 1.26 fold
volume of distribution relative to total body water (0.67 L/kg) in rats ([2]; plasma, iv 1 mg/kg): 44.69 fold
AUC(0-inf) ([2]; plasma, iv 1 mg/kg): 239 ng·h/mL
AUC(0-t) ([2]; plasma, iv 1 mg/kg): 197 ng·h/mL
Cmax ([2]; plasma, iv 1 mg/kg): 275 ng/mL
half-life ([2]; plasma, iv 1 mg/kg): 4.96 h
clearance ([2]; plasma, iv 1 mg/kg): 69.7 mL/min/kg
Vd ([2]; plasma, iv 1 mg/kg): 29.9 L/kg
bioavailability ([2]; plasma): 95.9%
AUC(0-inf) ([2]; plasma, po 10 mg/kg): 2290 ng·h/mL
AUC(0-t) ([2]; plasma, po 10 mg/kg): 2250 ng·h/mL
Tmax ([2]; plasma, po 10 mg/kg): 2 h
Cmax ([2]; plasma, po 10 mg/kg, read-out: Cmax): 328 ng/mL
half-life ([2]; plasma, po 10 mg/kg): 4.4 h
systemic clearance as share of hepatic blood flow in rats (3.31 L/hr/kg) ([2]; whole blood, iv 1 mg/kg): 35.0%
volume of distribution relative to total body water (0.67 L/kg) in rats ([2]; whole blood, iv 1 mg/kg): 15.40 fold
AUC(0-inf) ([2]; whole blood, iv 1 mg/kg): 859 ng·h/mL
AUC(0-t) ([2]; whole blood, iv 1 mg/kg): 827 ng·h/mL
Cmax ([2]; whole blood, iv 1 mg/kg): 643 ng/mL
half-life ([2]; whole blood, iv 1 mg/kg): 6.14 h
clearance ([2]; whole blood, iv 1 mg/kg): 19.3 mL/min/kg
Vd ([2]; whole blood, iv 1 mg/kg): 10.3 L/kg
bioavailability ([2]; whole blood): 70.1%
AUC(0-inf) ([2]; whole blood, po 10 mg/kg): 6020 ng·h/mL
AUC(0-t) ([2]; whole blood, po 10 mg/kg): 5930 ng·h/mL
Tmax ([2]; whole blood, po 10 mg/kg): 2 h
Cmax ([2]; whole blood, po 10 mg/kg, read-out: Cmax): 678 ng/mL
half-life ([2]; whole blood, po 10 mg/kg): 4.03 h
